Data taken from patent publication EP3587389A1 (INSTYTUT FARMACEUTYCZNY, priority 2018, dated 2020).

Experiments:
[1] = Oxidation inhibition of the o/w emulsion (lipid peroxidation, TBARS); conditions: for o/w emulsion (Inhibition of the oxidation (%)) / o/w emulsion (Inhibition of the oxidation), footnoted symbol: determined at 100 µM, flaxseed oil emulsion, oxidation induced with Mohr's salt, TBARS; for protection against the induced oxidation (in words): o/w emulsion model
Experimental: The emulsion was prepared according to the method described in Zarnowski R. et al., The oil of Adenanthera pavonina L. seeds and its emulsions. Z Naturforsch C. 2004;59(5-6):321-326; Jaromin A. et al., Emulsions of oil from Adenanthera pavonina L. seeds and their protective effect Cell Mol Biol Lett 2006; 11(3): 438-448). Briefly, 15 mg of sorbitan sesquioleate was added to 50 mg of flaxseed oil and vigorously mixed for 20 min. Then, 2 ml of an aqueous phase consisting of 10 mM Tris-HCl buffer, pH 7.4, was added. The sample was further vortexed for 15 min. and sonicated (Sonics & Materials Inc., Newton, CT, USA) for 10 min. in a coldwater bath. Then, 20 µl of the 1:1 (v/v) buffer diluted emulsion, methanolic solution of each compound (final concentration 100 µM) and 10 mM Tris-HCl buffer, pH 7.4, were mixed and incubated at room temperature for 10 min. To induce oxidation, 100 µl of freshly prepared aqueous solution of ammonium iron(II) sulfate hexahydrate (Mohr's salt) (5 mM) was added (total volume of the sample was 1 ml) and the samples were incubated at room temperature for 15 min. Flaxseed oil emulsion without any compound addition was included as control. After the oxidation step, determination of the thiobarbituric acid reacting substances (TBARS) was performed (Buege J.A., Aust S.D., Microsomal lipid peroxidation. Methods Enzymol. 1978;52:302-310). 2 ml of the thiobarbituric acid (TBA) reagent (15% trichloroacetic acid, 0.25 N HCl and 0.5% TBA) was added to each sample, mixed and heated at 100°C for 30 min. After centrifugation at 13 000 rpm for 10 min, the absorbance of the supernatants was measured at 535 nm. The obtained values were used to calculate the % of the oxidation inhibition according to the following equation: Inhibition of the oxidation (%) = [1−(absorbance of the sample/absorbance of control)] × 100 [formula]

[2] = DPPH free radical scavenging assay; conditions: for IC50: 30 min at room temperature, absorbance at 517 nm; for scavenging abilities (in words): DPPH assay
Experimental: J Nat Prod. 2010 Feb 26; 73(2): 252-4. doi: 10.1021/np900519d.) with a modification. Briefly, different concentrations of the compounds (100 µl) were mixed with 900 µl of the 0.04 mg/ml methanolic solution of DPPH. The mixture was kept at room temperature for 30 min, and then the absorbance at 517 nm was measured. The half maximal inhibitory concentration (IC50) was used as an indicating measure of the scavenging activity.

| IC50 [2] [µM] | Compound | o/w emulsion (Inhibition of the oxidation (%)) [1] [%] | protection against the induced oxidation (in words) [1] | scavenging abilities (in words) [2] | o/w emulsion (Inhibition of the oxidation), footnoted symbol [1] |
| --- | --- | --- | --- | --- | --- |
| 18.6 | COC(=O)/C=C/c1ccc(O)c(O)c1O [Compound 12, 3-(2',3',4'-trihydroxyphenyl)-(E)-propenoic acid methyl ester] | 55.5 ± 2 | highest protection against the induced oxidation |  |  |
| 688 | CC(=O)/C=C/c1ccc(O)cc1O [Compound 17, 4-(2',4'-dihydroxyphenyl)-3(E)-buten-2-one] | 4.6 ± 1.3 |  |  |  |
| 61.8 | COc1cc(/C=C/C(C)=O)ccc1O [Compound 20, 4-(3'-methoxy-4'-hydroxyphenyl)-3(E)-buten-2-one] | 7.9 ± 2.1 |  |  |  |
| 32.2 | O=C(O)/C=C/c1ccc(O)c(O)c1 [CA, Caffeic acid] | 26.1 ± 2.9 |  |  |  |
| > 5000 | COC(=O)/C=C/c1ccc(O)cc1 [Compound 8, 3-(4'-Hydroxyphenyl)-(E)-propenoic acid methyl ester] | 22.7 ± 6.4 |  | no scavenging abilities |  |
| 53.3 | COC(=O)/C=C/c1cc(O)c(O)cc1O [Compound 13, 3-(2',4',5'-trihydroxyphenyl)-(E)-propenoic acid methyl ester] | 38.6 ± 2.3 | highest protection against the induced oxidation |  |  |
| > 5000 | COC(=O)/C=C/c1cccc(O)c1 [Compound 10, 3-(3'-Hydroxyphenyl)-(E)-propenoic acid methyl ester] | 18.4 ± 2.2 |  | no scavenging abilities |  |
| 16.8 | CC(=O)/C=C/c1ccc(O)c(O)c1O [Compound 18, 4-(2',3',4'-trihydroxyphenyl)-3(E)-buten-2-one] | 28.6 ± 4 | highest protection against the induced oxidation |  |  |
| > 5000 | CC(=O)/C=C/c1ccc(O)cc1 [Compound 16, 4-(4'-hydroxyphenyl)-3(E)-buten-2-one] | 6.8 ± 4.4 |  | no scavenging abilities |  |
|  | CC(=O)/C=C/c1cccc(O)c1 [Compound 15, 4-(3'-hydroxyphenyl)-3(E)-buten-2-one] |  |  | no scavenging abilities | n.a.^b (no protection detected) |
| 1020 | COC(=O)/C=C/c1ccc(O)cc1O [Compound 11, 3-(2',4'-dihydroxyphenyl)-(E)-propenoic acid methyl ester] | 33.7 ± 6.5 |  |  |  |
| > 5000 | CC(=O)/C=C/c1ccccc1O [Compound 6, 4-(2'-hydroxyphenyl)-3(E)-buten-2-one] |  |  | no scavenging abilities | n.a.^b (no protection detected) |

| Compound | IC50 [2] [µM] | o/w emulsion (Inhibition of the oxidation (%)) [1] [%] | protection against the induced oxidation (in words) [1] | scavenging abilities (in words) [2] | o/w emulsion (Inhibition of the oxidation), footnoted symbol [1] |
| --- | --- | --- | --- | --- | --- |
| COC(=O)/C=C/c1ccc(O)c(OC)c1 [Compound 14, 3-(4'-hydroxy-3-metoxyphenyl)-(E)-propenoic acid methyl ester] | 58.9 | 14.8 ± 2 |  |  |  |
| COC(=O)/C=C/c1ccccc1O [Compound 9, 3-(2'-Hydroxyphenyl)-(E)-propenoic acid methyl ester] | > 5000 | 2.6 ± 1.5 |  | no scavenging abilities |  |
